# Measurements published in ChEMBL document CHEMBL2010722, “Structure-activity relationship study of beta-carboline derivatives as haspin kinase inhibitors” (Bioorg Med Chem Lett, 2012).
# What was measured:
# [1] = target: Ribosomal protein S6 kinase alpha-5 (Homo sapiens) (UniProt O75582); assay: Inhibition of MSK1 N-terminal at 10 uM
# [2] = target: Protein kinase C beta type (Homo sapiens) (UniProt P05771); assay: Inhibition of PKCbeta1 at 10 uM
# [3] = target: CDK3/cyclin E (Homo sapiens) (UniProt P24864+O96020+Q00526); assay: Inhibition of CDK3-Cyclin E1 at 10 uM; type: protein-complex assay
# [4] = tested on: Epidermal growth factor receptor (Homo sapiens), P00533 [L861Q]; assay: Inhibition of EGFR L861Q mutant at 10 uM; type: protein assay
# [5] = tested on: Hepatocyte growth factor receptor (Homo sapiens), P08581 [Y1235D]; assay: Inhibition of MET Y1235D mutant at 10 uM
# [6] = target: LKB1-STRAD-MO25 complex (Homo sapiens) (UniProt Q15831+Q7RTN6+Q9Y376); assay: Inhibition of LKB1-MO25a-STRADa at 10 uM; type: protein-complex assay
# [7] = tested on: Mast/stem cell growth factor receptor Kit (Homo sapiens), P10721 [V560G]; assay: Inhibition of KIT V560G mutant at 10 uM
# [8] = target: Sphingosine kinase 1 (Homo sapiens) (UniProt Q9NYA1); assay: Inhibition of SPHK1 at 10 uM
# [9] = tested on: Platelet-derived growth factor receptor alpha (Homo sapiens), P16234 [V561D]; assay: Inhibition of PDGFRa V561D mutant at 10 uM
# [10] = target: Calcium/calmodulin-dependent protein kinase type IV (Homo sapiens) (UniProt Q16566); assay: Inhibition of CaMK4 at 10 uM
# [11] = target: SRSF protein kinase 2 (Homo sapiens) (UniProt P78362); assay: Inhibition of SRPK2 at 10 uM
# [12] = target: Tyrosine-protein kinase Lyn (Homo sapiens) (UniProt P07948); assay: Inhibition of LYNa at 10 uM
# [13] = Inhibition of CDK4/[…] at 10 uM
# [14] = target: CDK6/cyclin D3 (Homo sapiens) (UniProt P30281+Q00534); assay: Inhibition of CDK6-CycD3 at 10 uM; type: protein-complex assay
# [15] = target: MAP/microtubule affinity-regulating kinase 4 (Homo sapiens) (UniProt Q96L34); assay: Inhibition of MARK4 at 10 uM
# [16] = target: Phosphorylase b kinase gamma catalytic chain, liver/testis isoform (Homo sapiens) (UniProt P15735); assay: Inhibition of PHKG2 at 10 uM
# [17] = target: Serine/threonine-protein kinase TAO2 (Homo sapiens) (UniProt Q9UL54); assay: Inhibition of TAOK2 at 10 uM
# [18] = target: Fibroblast growth factor receptor 4 (Homo sapiens) (UniProt P22455); assay: Inhibition of FGFR4 at 10 uM
# [19] = target: T1, Serine/threonine-protein kinase haspin (Homo sapiens, UniProt Q8TF76)
# T1 sequence (Q8TF76 whole entry): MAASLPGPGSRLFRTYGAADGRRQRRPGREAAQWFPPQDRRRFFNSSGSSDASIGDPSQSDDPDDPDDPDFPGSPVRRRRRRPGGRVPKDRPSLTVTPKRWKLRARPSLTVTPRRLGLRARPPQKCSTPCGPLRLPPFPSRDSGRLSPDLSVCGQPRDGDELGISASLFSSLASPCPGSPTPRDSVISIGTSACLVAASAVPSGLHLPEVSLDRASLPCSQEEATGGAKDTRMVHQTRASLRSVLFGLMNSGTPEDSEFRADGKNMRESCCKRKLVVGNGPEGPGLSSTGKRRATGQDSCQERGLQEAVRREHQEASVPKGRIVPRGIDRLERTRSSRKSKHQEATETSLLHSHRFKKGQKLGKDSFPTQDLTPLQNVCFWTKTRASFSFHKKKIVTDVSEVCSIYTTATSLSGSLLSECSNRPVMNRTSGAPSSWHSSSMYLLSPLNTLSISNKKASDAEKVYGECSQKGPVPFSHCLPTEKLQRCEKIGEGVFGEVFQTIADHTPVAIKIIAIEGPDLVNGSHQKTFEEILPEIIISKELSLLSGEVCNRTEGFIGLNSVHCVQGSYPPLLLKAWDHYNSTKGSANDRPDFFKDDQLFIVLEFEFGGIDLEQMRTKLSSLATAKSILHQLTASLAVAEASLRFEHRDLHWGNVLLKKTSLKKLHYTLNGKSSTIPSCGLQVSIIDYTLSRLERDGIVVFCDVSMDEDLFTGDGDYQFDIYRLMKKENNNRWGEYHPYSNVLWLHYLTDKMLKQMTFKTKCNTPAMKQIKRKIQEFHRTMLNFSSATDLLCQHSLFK
# [20] = target: Casein kinase II alpha/beta (Homo sapiens) (UniProt P67870+P68400); assay: Inhibition of CK2a1/b at 10 uM; type: protein-complex assay
# [21] = target: Serine/threonine-protein kinase Nek6 (Homo sapiens) (UniProt Q9HC98); assay: Inhibition of NEK6 at 10 uM
# [22] = target: Focal adhesion kinase 1 (Homo sapiens) (UniProt Q05397); assay: Inhibition of FAK at 10 uM
# [23] = target: Serine/threonine-protein kinase SIK1 (Homo sapiens) (UniProt P57059); assay: Inhibition of SIK at 10 uM
# [24] = target: Tyrosine-protein kinase BTK (Homo sapiens) (UniProt Q06187); assay: Inhibition of BTK at 10 uM
# [25] = target: Mitogen-activated protein kinase kinase kinase 9 (Homo sapiens) (UniProt P80192); assay: Inhibition of MLK1 at 10 uM
# [26] = target: Interleukin-1 receptor-associated kinase 4 (Homo sapiens) (UniProt Q9NWZ3); assay: Inhibition of IRAK4 at 10 uM
# [27] = target: Serine/threonine-protein kinase 26 (Homo sapiens) (UniProt Q9P289); assay: Inhibition of MST4 at 10 uM
# [28] = target: Phosphorylase b kinase gamma catalytic chain, skeletal muscle/heart isoform (Homo sapiens) (UniProt Q16816); assay: Inhibition of PHKG1 at 10 uM
# [29] = target: Tyrosine-protein kinase Blk (Homo sapiens) (UniProt P51451); assay: Inhibition of BLK at 10 uM
# [30] = target: Dual specificity mitogen-activated protein kinase kinase 7 (Homo sapiens) (UniProt O14733); assay: Inhibition of MAP2K7 at 10 uM
# [31] = target: Receptor tyrosine-protein kinase erbB-2 (Homo sapiens) (UniProt P04626); assay: Inhibition of HER2 at 10 uM
# [32] = target: Ephrin type-A receptor 1 (Homo sapiens) (UniProt P21709); assay: Inhibition of EPHA1 at 10 uM
# [33] = target: CDK9/cyclin T1 (Homo sapiens) (UniProt O60563+P50750); assay: Inhibition of CDK9-CycT1 at 10 uM; type: protein-complex assay
# [34] = target: Ephrin type-A receptor 7 (Homo sapiens) (UniProt Q15375); assay: Inhibition of EPHA7 at 10 uM
# [35] = target: Mitogen-activated protein kinase 9 (Homo sapiens) (UniProt P45984); assay: Inhibition of JNK2 at 10 uM
# Ephrin type-A receptor 1 (Homo sapiens), sequence (P21709 whole entry): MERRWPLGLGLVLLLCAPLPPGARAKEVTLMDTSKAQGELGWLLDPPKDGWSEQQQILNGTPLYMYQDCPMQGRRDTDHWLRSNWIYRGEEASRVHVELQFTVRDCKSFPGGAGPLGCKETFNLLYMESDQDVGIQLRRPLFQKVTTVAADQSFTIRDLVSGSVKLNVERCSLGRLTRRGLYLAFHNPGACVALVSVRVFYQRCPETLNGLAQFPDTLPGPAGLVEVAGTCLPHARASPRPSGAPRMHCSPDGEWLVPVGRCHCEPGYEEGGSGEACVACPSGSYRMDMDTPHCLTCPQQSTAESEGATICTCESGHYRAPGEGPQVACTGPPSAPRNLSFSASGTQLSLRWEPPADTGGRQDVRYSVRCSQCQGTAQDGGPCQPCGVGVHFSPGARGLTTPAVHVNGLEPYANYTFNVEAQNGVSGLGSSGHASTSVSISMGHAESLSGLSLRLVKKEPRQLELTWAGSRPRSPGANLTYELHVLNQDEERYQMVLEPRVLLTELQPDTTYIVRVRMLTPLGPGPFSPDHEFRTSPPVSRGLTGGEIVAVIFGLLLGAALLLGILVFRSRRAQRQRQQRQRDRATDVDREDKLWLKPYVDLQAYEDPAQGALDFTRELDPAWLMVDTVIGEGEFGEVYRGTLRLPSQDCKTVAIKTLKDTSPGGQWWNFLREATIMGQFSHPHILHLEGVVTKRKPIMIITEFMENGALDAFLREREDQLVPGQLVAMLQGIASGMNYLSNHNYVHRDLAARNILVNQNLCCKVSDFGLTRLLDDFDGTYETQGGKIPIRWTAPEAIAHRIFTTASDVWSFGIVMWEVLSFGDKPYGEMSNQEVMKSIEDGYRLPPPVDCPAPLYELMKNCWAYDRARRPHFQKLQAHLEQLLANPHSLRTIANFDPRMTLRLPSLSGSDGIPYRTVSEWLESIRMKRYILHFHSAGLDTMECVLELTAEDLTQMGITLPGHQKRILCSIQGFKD
# Tyrosine-protein kinase Lyn (Homo sapiens), sequence (P07948 2-512 limits assumed): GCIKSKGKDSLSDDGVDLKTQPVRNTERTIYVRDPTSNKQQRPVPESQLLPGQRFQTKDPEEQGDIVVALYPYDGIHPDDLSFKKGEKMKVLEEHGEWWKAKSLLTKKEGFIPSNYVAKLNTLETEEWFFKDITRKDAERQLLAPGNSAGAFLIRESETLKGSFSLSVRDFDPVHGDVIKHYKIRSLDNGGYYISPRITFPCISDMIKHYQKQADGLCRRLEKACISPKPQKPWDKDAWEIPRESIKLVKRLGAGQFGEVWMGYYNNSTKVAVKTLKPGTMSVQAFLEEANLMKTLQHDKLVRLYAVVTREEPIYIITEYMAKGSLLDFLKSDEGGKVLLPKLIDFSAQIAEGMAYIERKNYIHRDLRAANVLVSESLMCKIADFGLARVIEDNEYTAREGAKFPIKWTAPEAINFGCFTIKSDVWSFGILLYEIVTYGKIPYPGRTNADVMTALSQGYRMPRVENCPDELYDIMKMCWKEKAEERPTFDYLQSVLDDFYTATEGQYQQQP
# Platelet-derived growth factor receptor alpha (Homo sapiens), P16234 [V561D], sequence (P16234 whole entry V561D): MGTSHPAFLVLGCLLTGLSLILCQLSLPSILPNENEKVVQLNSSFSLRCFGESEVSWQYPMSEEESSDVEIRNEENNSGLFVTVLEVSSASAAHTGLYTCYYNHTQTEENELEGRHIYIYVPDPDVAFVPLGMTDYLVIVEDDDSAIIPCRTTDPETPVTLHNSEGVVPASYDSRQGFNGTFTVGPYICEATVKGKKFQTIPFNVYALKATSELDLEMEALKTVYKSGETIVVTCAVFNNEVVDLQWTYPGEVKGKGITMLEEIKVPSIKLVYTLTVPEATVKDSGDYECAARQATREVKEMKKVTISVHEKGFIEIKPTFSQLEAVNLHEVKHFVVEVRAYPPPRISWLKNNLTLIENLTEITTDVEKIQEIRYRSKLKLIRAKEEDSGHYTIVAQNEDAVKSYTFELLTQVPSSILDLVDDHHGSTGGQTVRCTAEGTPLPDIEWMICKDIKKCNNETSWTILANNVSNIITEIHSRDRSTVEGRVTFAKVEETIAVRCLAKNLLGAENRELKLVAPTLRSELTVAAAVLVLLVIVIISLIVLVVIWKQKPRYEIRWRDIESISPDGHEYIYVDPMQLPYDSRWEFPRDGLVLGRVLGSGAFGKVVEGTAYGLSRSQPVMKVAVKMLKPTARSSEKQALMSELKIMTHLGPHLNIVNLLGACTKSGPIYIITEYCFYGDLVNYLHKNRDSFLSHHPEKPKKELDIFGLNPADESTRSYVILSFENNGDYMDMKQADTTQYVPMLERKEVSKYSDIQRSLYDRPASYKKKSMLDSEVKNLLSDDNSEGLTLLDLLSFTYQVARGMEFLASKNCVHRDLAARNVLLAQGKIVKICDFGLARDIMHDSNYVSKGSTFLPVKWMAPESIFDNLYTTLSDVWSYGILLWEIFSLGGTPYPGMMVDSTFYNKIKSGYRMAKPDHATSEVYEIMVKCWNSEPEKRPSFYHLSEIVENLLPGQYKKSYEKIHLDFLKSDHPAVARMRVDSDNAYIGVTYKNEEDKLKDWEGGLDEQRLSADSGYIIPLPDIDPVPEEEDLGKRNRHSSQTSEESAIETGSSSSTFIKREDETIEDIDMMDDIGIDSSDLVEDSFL
# Serine/threonine-protein kinase Nek6 (Homo sapiens), sequence (Q9HC98 whole entry): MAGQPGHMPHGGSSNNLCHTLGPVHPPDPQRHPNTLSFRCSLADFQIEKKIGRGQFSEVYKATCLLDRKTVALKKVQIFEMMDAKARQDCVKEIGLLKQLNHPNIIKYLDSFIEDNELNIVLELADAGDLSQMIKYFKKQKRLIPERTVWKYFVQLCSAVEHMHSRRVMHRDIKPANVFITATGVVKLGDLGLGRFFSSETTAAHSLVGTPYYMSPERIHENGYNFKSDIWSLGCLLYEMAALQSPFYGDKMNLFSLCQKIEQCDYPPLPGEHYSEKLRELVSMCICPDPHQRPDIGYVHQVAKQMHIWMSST
# Serine/threonine-protein kinase TAO2 (Homo sapiens), sequence (Q9UL54 whole entry): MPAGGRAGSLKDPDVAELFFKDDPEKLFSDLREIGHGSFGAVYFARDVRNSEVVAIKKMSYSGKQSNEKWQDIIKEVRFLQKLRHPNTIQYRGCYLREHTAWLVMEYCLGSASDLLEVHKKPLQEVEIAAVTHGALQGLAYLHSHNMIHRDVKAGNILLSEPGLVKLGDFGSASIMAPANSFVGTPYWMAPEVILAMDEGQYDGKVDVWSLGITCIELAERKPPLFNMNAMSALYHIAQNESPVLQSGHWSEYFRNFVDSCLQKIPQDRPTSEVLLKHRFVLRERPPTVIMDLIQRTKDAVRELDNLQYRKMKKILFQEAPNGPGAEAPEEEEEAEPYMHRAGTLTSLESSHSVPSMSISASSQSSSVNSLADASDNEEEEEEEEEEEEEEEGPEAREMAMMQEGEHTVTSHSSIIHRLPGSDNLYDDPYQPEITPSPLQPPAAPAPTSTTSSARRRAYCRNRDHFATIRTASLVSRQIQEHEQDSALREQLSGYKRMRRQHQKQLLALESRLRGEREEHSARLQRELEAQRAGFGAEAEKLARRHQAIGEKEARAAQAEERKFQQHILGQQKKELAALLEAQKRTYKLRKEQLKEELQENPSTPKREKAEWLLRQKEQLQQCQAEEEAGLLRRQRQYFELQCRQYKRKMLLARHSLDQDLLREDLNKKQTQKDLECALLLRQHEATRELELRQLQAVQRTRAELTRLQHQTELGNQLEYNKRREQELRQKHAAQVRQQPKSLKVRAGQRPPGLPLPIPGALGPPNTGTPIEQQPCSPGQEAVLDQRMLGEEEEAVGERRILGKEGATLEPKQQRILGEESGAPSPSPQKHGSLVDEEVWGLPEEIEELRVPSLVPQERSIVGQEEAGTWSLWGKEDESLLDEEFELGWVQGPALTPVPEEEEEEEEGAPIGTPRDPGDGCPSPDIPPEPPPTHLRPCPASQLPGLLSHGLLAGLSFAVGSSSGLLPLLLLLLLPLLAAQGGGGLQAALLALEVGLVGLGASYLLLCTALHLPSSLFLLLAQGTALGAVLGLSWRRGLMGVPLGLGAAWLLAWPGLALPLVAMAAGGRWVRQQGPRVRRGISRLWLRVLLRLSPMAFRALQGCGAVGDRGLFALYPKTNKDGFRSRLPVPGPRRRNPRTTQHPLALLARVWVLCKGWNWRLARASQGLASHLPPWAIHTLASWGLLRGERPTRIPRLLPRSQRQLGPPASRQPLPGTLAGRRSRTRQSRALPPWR
# Fibroblast growth factor receptor 4 (Homo sapiens), sequence (P22455 22-802 limits assumed): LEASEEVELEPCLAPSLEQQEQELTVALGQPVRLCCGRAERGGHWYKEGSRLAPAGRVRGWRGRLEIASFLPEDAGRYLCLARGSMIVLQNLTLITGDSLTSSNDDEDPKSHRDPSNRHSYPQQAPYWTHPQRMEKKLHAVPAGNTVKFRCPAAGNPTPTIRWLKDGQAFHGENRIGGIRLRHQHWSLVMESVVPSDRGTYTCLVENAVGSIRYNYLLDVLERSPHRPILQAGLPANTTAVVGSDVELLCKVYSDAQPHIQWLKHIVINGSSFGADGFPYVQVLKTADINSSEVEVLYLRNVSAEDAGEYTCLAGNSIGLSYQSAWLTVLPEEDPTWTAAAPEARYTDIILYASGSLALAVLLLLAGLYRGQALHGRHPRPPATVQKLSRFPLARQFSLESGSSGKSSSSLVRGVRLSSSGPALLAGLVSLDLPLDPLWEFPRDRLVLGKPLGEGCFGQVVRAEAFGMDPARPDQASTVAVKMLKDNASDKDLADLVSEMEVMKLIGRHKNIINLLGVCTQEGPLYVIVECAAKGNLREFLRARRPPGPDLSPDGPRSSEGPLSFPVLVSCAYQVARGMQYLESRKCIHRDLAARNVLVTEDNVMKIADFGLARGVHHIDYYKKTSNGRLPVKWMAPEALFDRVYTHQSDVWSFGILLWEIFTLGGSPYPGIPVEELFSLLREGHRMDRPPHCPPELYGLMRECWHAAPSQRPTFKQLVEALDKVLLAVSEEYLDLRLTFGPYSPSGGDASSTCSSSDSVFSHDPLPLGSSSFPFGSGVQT
structure (smiles),measurement,setting,value
COc1ccc2c3ccnc(C(F)(F)F)c3n(CCCCN)c2c1,inhibition,[1],36%
same,inhibition,[2],35%
same,inhibition,[3],22%
same,inhibition,[4],6%
same,inhibition,[5],2%
same,inhibition,[6],21%
same,inhibition,[7],16%
same,inhibition,[8],0%
same,inhibition,[9],31%
same,inhibition,[10],13%
same,inhibition,[11],0%
same,inhibition,[12],7%
same,inhibition,[13],27%
same,inhibition,[14],28%
same,inhibition,[15],50%
same,inhibition,[16],26%
same,inhibition,[17],4%
same,inhibition,[18],6%
same,IC50,[19],100 nM
same,inhibition,[20],0%
same,inhibition,[21],5%
same,inhibition,[22],0%
same,inhibition,[23],8%
same,inhibition,[24],0%
same,inhibition,[25],0%
same,inhibition,[26],16%
same,inhibition,[27],0%
same,inhibition,[28],49%
same,inhibition,[29],4%
same,inhibition,[30],15%
same,inhibition,[31],0%
same,inhibition,[32],4%
same,inhibition,[33],79%
same,inhibition,[34],2%
same,inhibition,[35],8%
